Test results reported in PMC12910498 (ACS pharmacology & translational science, 2026).
Where “and” joins values, the source holds several entries; their conditions need not be identical. Identical values can stand only once. Like-named read-outs stand apart in the source and are kept apart here.

Columns and labels:
human D2R long isoform = human D2R long isoform (Homo sapiens, UniProt P14416); design: host or cells: CHO-K1; method as in PMID 30883109; conditions: antagonist mode; previously reported; cited from earlier work
human D3R [1] = target: T1, human D3R (Homo sapiens, UniProt P35462); design: host or cells: CHO-K1; method as in PMID 30883109; conditions: previously reported, cited from earlier work
human D4R [2] = target: T2, human D4R (Homo sapiens, UniProt P21917); design: host or cells: CHO-K1; method as in PMID 30883109; conditions: previously reported, cited from earlier work; for D4R Emax (%): agonist mode; for D4R Ant. (%): antagonist mode
T2 sequence (P21917 1-419): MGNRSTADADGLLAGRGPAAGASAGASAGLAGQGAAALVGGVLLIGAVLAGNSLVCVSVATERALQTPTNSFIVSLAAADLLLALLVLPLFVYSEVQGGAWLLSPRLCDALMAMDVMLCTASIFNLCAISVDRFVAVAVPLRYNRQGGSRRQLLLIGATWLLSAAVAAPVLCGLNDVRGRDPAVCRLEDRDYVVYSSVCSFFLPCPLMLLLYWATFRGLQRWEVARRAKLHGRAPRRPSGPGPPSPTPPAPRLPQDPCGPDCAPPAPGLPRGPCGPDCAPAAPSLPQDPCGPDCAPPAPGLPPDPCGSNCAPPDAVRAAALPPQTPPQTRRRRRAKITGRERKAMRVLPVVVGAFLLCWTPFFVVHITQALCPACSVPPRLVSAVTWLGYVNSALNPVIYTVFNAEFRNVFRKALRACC

human D3R [3] = target: T1, human D3R; design: expressed in transfected cells; host or cells: HEK293; method as in PMID 30883109; conditions: HEK293 membranes, hD3R; previously reported; read-out: Ki (nM) ± SEM [3H]N-methlyspiperone D3R; cited from earlier work
[4] = Phase I metabolic stability in human liver microsomes (with NADPH); type: in vitro ADME; conditions: pH 7.4, presence of NADPH, mean ± SD, n = 3
Procedure: (§1) We evaluated the Phase I metabolic stability of compounds 2−7 and 14−19 using rat and human liver microsomes, as previously described.[45]
(§2) Phase I metabolic stability assays were conducted using rat and human liver microsomes as previously described[45],[70] with minor modifications. In brief, the reactions were carried out with 100 mM potassium phosphate buffer, pH 7.4, in the presence of NADPH regenerating system (1.3 mM NADPH, 3.3 mM glucose 6-phosphate, 3.3 mM MgCl2, 0.4 U/mL glucose-6-phosphate dehydrogenase, 50 μM sodium citrate). Negative controls without cofactors were assessed to determine the non-CYP-mediated metabolism. Compound disappearance was monitored over time using a liquid chromatography and tandem mass spectrometry (LC/MS) method. All reactions were performed in triplicate.
(§3) Chromatographic analysis was performed on a Dionex ultra high-performance LC system coupled with Q Exactive Focus orbitrap mass spectrometer (Thermo Fisher Scientific Inc., Waltham MA). Separation was achieved using Agilent Eclipse Plus column (100 × 2.1 mm^2 i.d.; maintained at 35 °C) packed with a 1.8 μm C18 stationary phase. […] The total run time for each analyte was 6.5 min. Pumps were operated at a flow rate of 0.3 mL/min. The mass spectrometer controlled by Xcalibur software 4.0.27.13 (Thermo Scientific) was operated with a HESI ion source in positive ionization mode. Compounds were identified in the full-scan mode (from m/z 50 to 750) by comparing t = 0 samples with t = 30 min and t = 60 min samples.

[5] = Phase I metabolic stability in rat liver microsomes (with NADPH); type: in vitro ADME; conditions: pH 7.4, presence of NADPH, mean ± SD, n = 3
Procedure: as §1, §2, §3

human D4R [6] = target: T2, human D4R; conditions: for D4R Ant. (%): cAMP, antagonist mode, 10 μM forskolin and 10 nM dopamine, normalized to spiperone; for Emax: read-out: D4R Emax (%)
[7] = Non-Phase I metabolic stability in human liver microsomes (absence of NADPH); type: in vitro ADME
Procedure: We also evaluated the non-Phase I metabolic stability of compounds 2−7 and 14−19 using rat and human liver microsomes. […] This may represent metabolism by hydrolases that can specifically attack the amide. Evidence in support of this hypothesis is shown by the remarkable stability of all triazole analogs (14−19) in the absence of NADPH in Figure 5B,D.
as §2
Chromatographic analysis was performed on a Dionex ultra high-performance LC system coupled with Q Exactive Focus orbitrap mass spectrometer (Thermo Fisher Scientific Inc., Waltham MA). Separation was achieved using Agilent Eclipse Plus column (100 × 2.1 mm^2 i.d.; maintained at 35 °C) packed with a 1.8 μm C18 stationary phase. […] The total run time for each analyte was 6.5 min. […]

[8] = Pharmacokinetics study in rats (plasma and brain); type: in vivo, Sprague−Dawley rats; conditions: rat, 5 mg/kg IP
Procedure: Given their adequate in vitro stability profiles, we next evaluated the in vivo pharmacokinetic profiles of 14, 15, 17, and 18 in rats. Sprague−Dawley rats were dosed with 5 mg/kg (14, 15, 17) or 10 mg/kg (18), i.p., and plasma and brain levels of each drug were measured 0−6 h postdose.
All animal experiments were performed following the protocols evaluated and approved by the Animal Care and Use Committee at Johns Hopkins University (Ethics Approval Number: RA24M403). Pharmacokinetic studies in Sprague−Dawley (SD) rats were conducted according to protocols approved. SD rats obtained from Harlan were maintained on a 12 h light−dark cycle with ad libitum access to food and water. Test compound was administered via i.p. injection at a dose of 10 mg/kg (100% saline vehicle, 10 mL/kg volume). The rats were sacrificed at specified time points (0.25, 0.5 h, 1, 2, 4, and 6 h) post drug administration. For the collection of plasma and brain tissue, animals were euthanized with CO2, and blood samples were collected in heparinized microtubes by cardiac puncture. Brains were dissected and immediately flash-frozen (−80 °C). Blood samples were spun at 2000g for 15 min, and plasma was removed and stored at −80 °C until analysis (as described below).
Quantitation of triazole analogs 14, 15, 17, and 18 was performed using liquid chromatography with tandem mass spectrometry (LC/MS-MS) methods. Briefly, calibration standards were prepared using respective tissue (naïve plasma and brain) with additions of the test compounds. For quantifying the test compounds in the pharmacokinetic samples, plasma samples (20 μL) were processed using a single liquid extraction method by addition of 100 μL of acetonitrile containing internal standard (losartan: 0.5 μM), followed by vortex-mixing for 30 s and then centrifugation at 10,000g for 10 min at 4 °C. Brain tissues were diluted 1:5 w/v with acetonitrile containing losartan (0.5 μm) and homogenized, followed by vortex-mixing and centrifugation at 10,000g for 10 min at 4 °C. A 50 μL aliquot of the supernatant was diluted with 50 μL of water and transferred to 250 μL polypropylene autosampler vials sealed with Teflon caps. Two μL of the sample was injected into the LC/MS/MS system for analysis. Chromatographic analysis was performed using an Accela ultra high-performance system consisting of an analytical pump and an autosampler coupled with a TSQ Vantage mass spectrometer. […] The mobile phase consisted of 0.1% formic acid in acetonitrile and 0.1% formic acid in water with gradient elution, starting with 10% organic phase (from 0 to 1 min) linearly increasing to 95% (from 1 to 2 min), and re-equilibrating to 10% by 3 min. The total run time for each analyte was 3.5 min. Pumps were operated at a flow rate of 0.4 mL/min. […] Plasma concentrations (nmol/mL) as well as brain tissue concentrations (nmol/g) were determined and plots of mean plasma concentration versus time were constructed. Noncompartmental analysis modules in Phoenix WinNonlin version 7.0 (Certara USA, Inc., Princeton, NJ) were used to quantify exposures (AUC0−t) and half-life (t1/2).

D5 = target: T3, D5 (Homo sapiens, UniProt P21918); assay: PDSP primary screen, D5; type: binding; conditions: 10 µM compound
T3 construct: Psychoactive Drug Screening Program (PDSP)
Excerpt: (§4) Receptor Primary Secondary Primary Secondary Primary Secondary Primary Secondary screen assay screen assay screen assay screen assay […]
(§5) inhibition in primary assessment.

D1 = target: T4, D1 (Homo sapiens, UniProt P21728); assay: PDSP primary screen and secondary assay, D1; type: binding; conditions: 10 µM compound
T4 construct: Psychoactive Drug Screening Program (PDSP)
Excerpt: as §4, §5

human D4R [9] = target: T2, human D4R; assay: DiscoverX PathHunter β-arrestin recruitment assay, D4R
human D2LR = human D2LR (Homo sapiens, UniProt P14416); assay: biochemical
human D4R [10] = target: T2, human D4R; assay: [3H]N-methylspiperone radioligand competition binding, hD4R membranes
human D3R [11] = target: T1, human D3R; assay: biochemical

Sequence of human D2R long isoform (P14416 whole entry, canonical isoform): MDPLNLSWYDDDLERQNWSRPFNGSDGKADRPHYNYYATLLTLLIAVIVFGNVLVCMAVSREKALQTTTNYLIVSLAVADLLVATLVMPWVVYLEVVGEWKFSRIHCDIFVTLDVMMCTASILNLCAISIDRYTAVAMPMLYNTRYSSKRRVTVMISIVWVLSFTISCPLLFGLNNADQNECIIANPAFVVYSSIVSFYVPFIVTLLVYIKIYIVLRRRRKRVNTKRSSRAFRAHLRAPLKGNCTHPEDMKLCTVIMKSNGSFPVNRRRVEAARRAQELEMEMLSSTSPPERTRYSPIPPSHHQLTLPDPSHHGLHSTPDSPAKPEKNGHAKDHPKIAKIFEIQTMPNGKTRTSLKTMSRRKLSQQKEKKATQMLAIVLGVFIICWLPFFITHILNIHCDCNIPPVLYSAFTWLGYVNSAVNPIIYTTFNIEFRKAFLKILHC
T1 sequence (P35462 whole entry): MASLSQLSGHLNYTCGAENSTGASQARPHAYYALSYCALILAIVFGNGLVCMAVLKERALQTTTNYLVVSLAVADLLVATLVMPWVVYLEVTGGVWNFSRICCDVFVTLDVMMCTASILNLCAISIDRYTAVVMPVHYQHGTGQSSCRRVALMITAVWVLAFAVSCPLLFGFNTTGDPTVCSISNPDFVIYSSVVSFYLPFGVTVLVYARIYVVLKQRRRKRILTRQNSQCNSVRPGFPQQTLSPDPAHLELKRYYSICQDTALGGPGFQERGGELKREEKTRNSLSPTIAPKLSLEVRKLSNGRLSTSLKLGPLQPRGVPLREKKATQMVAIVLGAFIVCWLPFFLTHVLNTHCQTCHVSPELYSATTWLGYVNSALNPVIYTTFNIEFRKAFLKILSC
T3 sequence (P21918 whole entry): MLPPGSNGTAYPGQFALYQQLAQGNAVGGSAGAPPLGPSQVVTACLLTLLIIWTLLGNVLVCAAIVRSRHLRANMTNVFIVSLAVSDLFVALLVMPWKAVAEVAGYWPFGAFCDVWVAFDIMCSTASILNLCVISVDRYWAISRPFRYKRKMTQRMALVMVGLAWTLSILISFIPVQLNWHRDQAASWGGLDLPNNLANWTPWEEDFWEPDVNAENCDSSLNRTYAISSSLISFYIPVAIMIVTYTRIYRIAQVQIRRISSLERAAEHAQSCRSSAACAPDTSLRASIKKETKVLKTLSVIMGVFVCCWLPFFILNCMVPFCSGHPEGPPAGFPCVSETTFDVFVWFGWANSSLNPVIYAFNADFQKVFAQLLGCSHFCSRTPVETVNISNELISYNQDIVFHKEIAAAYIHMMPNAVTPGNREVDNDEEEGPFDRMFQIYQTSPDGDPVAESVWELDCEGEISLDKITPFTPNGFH
Sequence of human D2LR (P14416 whole entry): as the sequence (P14416 whole entry, canonical isoform) above
T4 sequence (P21728 whole entry): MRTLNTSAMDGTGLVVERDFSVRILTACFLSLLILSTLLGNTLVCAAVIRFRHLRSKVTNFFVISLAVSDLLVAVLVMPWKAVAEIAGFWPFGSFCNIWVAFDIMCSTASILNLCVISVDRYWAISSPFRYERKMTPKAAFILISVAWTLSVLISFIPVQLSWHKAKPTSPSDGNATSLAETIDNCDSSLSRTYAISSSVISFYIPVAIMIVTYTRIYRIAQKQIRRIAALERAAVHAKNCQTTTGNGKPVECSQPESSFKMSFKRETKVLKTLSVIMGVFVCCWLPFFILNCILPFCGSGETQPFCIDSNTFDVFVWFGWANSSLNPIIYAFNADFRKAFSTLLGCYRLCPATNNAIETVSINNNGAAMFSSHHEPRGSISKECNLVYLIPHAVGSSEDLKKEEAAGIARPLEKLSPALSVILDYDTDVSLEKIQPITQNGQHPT

Cc1cccc(NC(=O)CN2CCC(c3ccccn3)CC2)c1 [Compound 1, reference compound]
D2R Ant (%) (human D2R long isoform): 94.8 ± 2.8% | EC50 (human D3R [1]; agonist mode): > 100000 nM | IC50 (human D3R [1]; antagonist mode): > 100000 nM | D4R Emax (%) (human D4R [2]): 22.5 ± 4.0% | D4R Ant. (%) (human D4R [2]): 81.7 ± 2.7%

Cc1cccc(NC(=O)CN2CCN(c3ccccn3)CC2)c1 [Compound 2]
Ki (human D3R [3]): > 10000 nM | half-life [4]: 67 ± 2.41 min | half-life [5]: 9.92 ± 0.18 min | D3R Emax (%) (human D3R [1]; agonist mode): 49.4 ± 2.0% | IC50 (human D3R [1]; antagonist mode): > 100000 nM | EC50 (human D4R [6]): 2.92 ± 0.15 nM | D4R Ant. (%) (human D4R [6]): 16 ± 1% | Emax (human D4R [6]): 65 ± 3% | D4R Emax (%) (human D4R [2]): 30.7 ± 6.4% | D4R Ant. (%) (human D4R [2]): 78.9 ± 3.1%

CCc1cccc(NC(=O)CN2CCN(c3ccccn3)CC2)c1 [Compound 3]
half-life [4]: 249 ± 66.5 min | non-Phase I metabolic stability [7]: nonexistent | half-life [5]: 20.8 ± 1.99 min | D3R Emax (%) (human D3R [1]; agonist mode): 44.7 ± 5.9% | D3R Ant. (%) (human D3R [1]; antagonist mode): 100 ± 0% | EC50 (human D4R [6]): 5.38 ± 1.08 nM | IC50 (human D4R [6]): 267 ± 115 nM | D4R Ant. (%) (human D4R [6]): 30 ± 1% | Emax (human D4R [6]): 59 ± 4% | D4R Emax (%) (human D4R [2]): 26.2 ± 5.1% | D4R Ant. (%) (human D4R [2]): 59.7 ± 4.6%

Cc1cccc(NC(=O)CN2CCN(c3ncccn3)CC2)c1 [Compound 4]
Ki (human D3R [3]): > 10000 nM | half-life [4]: 39.8 ± 2.16 min | half-life [5]: 26.83 ± 0.21 min | D3R Emax (%) (human D3R [1]; agonist mode): 58.4 ± 6.6% | IC50 (human D3R [1]; antagonist mode): > 100000 nM | EC50 (human D4R [6]): 7.93 ± 2.12 nM | D4R Ant. (%) (human D4R [6]): 29 ± 5% | Emax (human D4R [6]): 60 ± 4% | D4R Emax (%) (human D4R [2]): 24.7 ± 5% | D4R Ant. (%) (human D4R [2]): 80.6 ± 3.0%

Cc1cccc(NC(=O)CN2CCC(c3ccccc3)CC2)c1 [Compound 5]
half-life [4]: 10.8 ± 0.57 min | half-life [5]: 1.99 ± 2.82 min | D2R Ant (%) (human D2R long isoform): 99.7 ± 0.3% | EC50 (human D4R [6]): 7.54 ± 2.21 nM | IC50 (human D4R [6]): 42.4 ± 10.6 nM | D4R Ant. (%) (human D4R [6]): 47 ± 1% | Emax (human D4R [6]): 42 ± 8% | D4R Emax (%) (human D4R [2]): 14 ± 0.3% | D4R Ant. (%) (human D4R [2]): 93% and 93.3 ± 1.8%

Cc1cccc(NC(=O)CN2CCN(c3ccc(Cl)cn3)CC2)c1 [Compound 7]
Ki (human D3R [3]): > 50000 nM | half-life [4]: 74.2 ± 4.56 min | half-life [5]: 9.51 ± 0.12 min | D2R Ant (%) (human D2R long isoform): 100 ± 0% | IC50 (human D4R [6]): 2870 ± 817 nM | D4R Ant. (%) (human D4R [6]): 110 ± 7%

Cc1cccc(-n2cc(CN3CCN(c4ccc(Cl)cn4)CC3)nn2)c1 [Compound 17, 1-(5-Chloropyridin-2-yl)-4-((1-(m-tolyl)-1H-1,2,3-triazol-4-yl)methyl)piperazine]
Kp ([8]; Sprague-Dawley, brain and plasma, ip, 5 mg/kg, AUC brain/plasma, read-out: brain: Plasma ratio): 0.3 | half-life ([8]; Sprague-Dawley, brain, ip, 5 mg/kg, brain, read-out: half-life (h) brain (converted)): 2.36 h | half-life ([8]; Sprague-Dawley, plasma and brain, ip, 5 mg/kg, tissue not specified, read-out: half-life (converted)): ≥ 2.1 h | half-life ([8]; Sprague-Dawley, plasma, ip, 5 mg/kg, plasma, read-out: half-life (h) plasma (converted)): 2.1 h | Tmax ([8]; Sprague-Dawley, brain, read-out: Tmax (h) brain): 0.25 h | AUC ([8]; Sprague-Dawley, plasma): 15.1 ± 1.83 µM·h | Cmax ([8]; Sprague-Dawley, plasma): 10 ± 1.27 µM | Tmax ([8]; Sprague-Dawley, plasma, read-out: Tmax (h) plasma): 0.25 h | AUC brain ([8]; brain): 4.57 ± 0.50 nmol·h/g | Cmax brain ([8]; brain): 3.04 ± 0.45 nmol/g | peak in vivo brain concentrations expected ([8]; from brain Cmax): greater than 3.0 μM | inhibition at 10 µM (D5): 6.22% | half-life [4]: 46.8 ± 6.69 min | inhibition at 10 µM (D1): 16.7% | IC50 (human D4R [9]): 3800 ± 720 nM | D4R Ant. (%) (human D4R [9]; antagonist mode, EC80 dopamine (1 μM), normalized to spiperone): 91.6 ± 4.7% | Ki (human D2LR): > 100000 nM | half-life [5]: 64.8 ± 2.12 min | Ki (human D4R [10]): 77.7 ± 19.9 nM | Selectivity D2R/D4R (human D4R [10]; ratio of Ki values): >1287 | Selectivity D3R/D4R (human D4R [10]; ratio of Ki values): >1287 | IC50 (human D4R [6]): 134 ± 36.4 nM | D4R Ant. (%) (human D4R [6]): 85 ± 1% | Ki (human D3R [11]): > 100000 nM
